Results reported in patent publication US20030061759A1, “Method for expelling harmful insects by volatilization of a chemical” (FUMAKILLA LIMITED, priority 2000, published 2003).

Experiments:
[1] = tested on: female adult common house mosquitoes (Culex pipiens pallens); assay: Example 1: spontaneous volatilization efficaciousness test in 33 m^3 room (knockdown, KT50); assay type: in vivo; conditions: for potency and retention of potency compared with transfluthrin: comparison in words
Text: Using sample chemicals A, B and C screened out by the preliminary tests, the efficaciousness of each of them when allowed to volatilize spontaneously was compared with that of transfluthrin when allowed to volatilize spontaneously.
Sample Preparations (Chemicals and Their Carriers According to the Present Invention):
(§1) A non-woven polypropylene fabric (made by Idemitsu Petroleum Chemicals Co., Ltd., product name RW2100, density 100 grams/m^2) of 50 cm×40 cm was coated with a hexane solution of 100 milliliter containing 1% (W/V) sample chemicals A, B, C and left to dry for 24 hours (effective amount of chemical: 1000 milligrams).
Comparative Preparation (Chemical and its Carrier):
as §1, with “of transfluthrin” for “sample chemicals A, B, C”
Testing Method: Efficaciousness Tests in an 8 Straw Mat room with a volume of 33 m^3
In the center of the test room with a volume of 33 m^3 (3.65 m×3.65 m×2.5 m high), each chemical carrier as prepared as above was placed as hung on a hook suspended in the center of the room to let the corresponding chemical volatilize spontaneously for a period of 3 hours. Thereafter, a triangular net casing (20 cm×20 cm×16.4 cm high) of 16 mesh nylon net containing 10 (ten) female adult common house mosquitoes (Culex pipiens pallens) was placed as hung in an area at each of the four corners (spaced from the wall surfaces at a distance of 90 cm) at a height of 150 cm from the room floor and was exposed to the chemical atmosphere.
A test was also conducted likewise for the comparative carrier.
After the tests ended, the samples chemicals were let to volatilize spontaneously in the room having a constant temperature of 30° C. The same test was repeated at given intervals and efficaciousness was then examined each time.

[2] = Comparative vapor pressure tests by gas chromatography; assay type: physicochemical; conditions: for Retention Time (gas chromatography, as comparison of vapor pressure): 60° C. initial, 5° C. per minute up to 250° C., non-polar methyl silicon polymer filler; for vapor pressure compared with transfluthrin and d,d-T80-prallethrin: from GC retention times
Protocol: 2. Comparative Vapor Pressure Tests
Next, by using gas chromatography, the various chemicals including sample chemicals A, B and C screened out by the foregoing comparative debugging efficaciousness tests were compared with d,d-T80-prallethrin (Etoc) as regards to their vapor pressures.
The gas chromatography test included as its temperature conditions an initial temperature of 60° C., and a temperature rise of 5° C. per minute up to a maximum temperature of 250° C., which was held for a period of 5 minutes, whereupon the process ended.
The filler used was made up of methyl silicon polymer, which is non-polar.
It should also be noted that as an internal standard substance use was made of sebacic acid-n-butyl and which was added to confirm that there was no deviation in retention time from one test to another.
Retention times for the various chemicals are listed in Table 2 in the order of shorter to longer.

[3] = tested on: female adult stegomyia mosquitoes (Aedes albopictus); assay: Comparative debugging efficaciousness tests: bloodsucking prevention on rats, liquid type electric mosquito repellent utensil; assay type: in vivo; conditions: for efficacy of preventing mosquitoes from bloodsucking rats compared with transfluthrin: comparison in words; for Potency Ratio (Etoc 100), of IC50 Value / Potency Ratio (Etoc 100), of IC90 Value: relative to d,d-T80-prallethrin (Etoc) = 100
Protocol: First, debugging efficaciousness tests were performed. For the criterion of judgment to compare degrees of efficaciousness, the effect of bloodsucking by mosquitoes of rats was adopted. Based on this, the following efficaciousness tests were carried out.
Comparative Debugging Efficaciousness Tests
Sample chemicals that were used were as follows: d,d-T80-prallethrin, transfluthrin, d1,d-T80-allethrin, d-T80-furamethrin, terallethrin and empenthrin; and pyrethroid technical products (sample chemicals) A, B, C, D, E, F, G and H.
Sample insects that were used were as follows: female adult stegomyia mosquitoes (Aedes albopictus) of Fumakilla (spelled phonetically) series 6th to 9th after emergence.
Sample chemical volatilizing form: A liquid type electric mosquito repellent utensil, a liquid agent (referred to below as “sample liquid”), obtained by diluting each of the sample chemicals with a solvent in a varying concentration, was allowed to volatilize.
Method used for tests: A test was conducted in two 8 straw mat (13.2 m^2) rooms, one as a treatment zone and the other as a non-treatment zone, both in a no-wind state and at a constant room temperature of 32° C.
In the treatment zone, three cages each with a rat confined therein were placed equidistantly spaced apart (about 20 cm) in the center of the test room. The mosquito repellent utensil placed on the floor surface of the center of the test room was preliminarily electrically energized for operation, and to thermally volatilize each of the sample liquids and fumigate the room therewith for a period of 30 minutes, and then about 100 (one hundred) of sample mosquitoes were released into the test room. After two hours following the release of the mosquitoes, all these sample mosquitoes were knocked-down by using a mosquito repellent mat, and the number of the mosquitoes which had bloodsucking was counted to find the proportion of bloodsucking.
In the non-treatment zone, also, after the 2 hours of bloodsucking, the proportion of bloodsucking was found.
A rate of bloodsucking prevention was derived from the proportions of bloodsucking in the treatment and non-treatment rooms as expressed by the following equation:
Rate of bloodsucking prevention =[(Total bloodsucking proportion in the non-treatment zone−Total bloodsucking proportion in the treatment zone)÷Total bloodsucking proportion in the non-treatment zone]×100
Also, on the basis of these amounts of volatilization and rates of bloodsucking prevention, an amount of volatilization at a 50% rate of bloodsucking prevention (IC50 value) and an amount of volatilization at a 90% rate of bloodsucking prevention (IC90 value) are found and shown in Table 1 below.

Row | Structure (SMILES) | potency and retention of potency compared with transfluthrin [1] | KT50 ([1]; elapsed time 0 hr) [min] | KT50 ([1]; elapsed time 168 hr) [min] | KT50 ([1]; elapsed time 336 hr) [min] | KT50 ([1]; elapsed time 504 hr) [min] | KT50 ([1]; elapsed time 672 hr) [min] | KT50 ([1]; elapsed time 864 hr) [min] | KT50 ([1]; elapsed time 1056 hr) [min] | KT50 ([1]; elapsed time 1200 hr) [min] | KT50 ([1]; elapsed time 1344 hr) [min] | KT50 ([1]; elapsed time 1536 hr) [min] | KT50 ([1]; elapsed time 1680 hr) [min] | KT50 ([1]; elapsed time 1848 hr) [min] | KT50 ([1]; elapsed time 2016 hr) [min] | KT50 ([1]; elapsed time 2208 hr) [min] | Retention Time (gas chromatography, as comparison of vapor pressure) [2] [min] | vapor pressure compared with transfluthrin and d,d-T80-prallethrin [2] | efficacy of preventing mosquitoes from bloodsucking rats compared with transfluthrin [3] | Potency Ratio (Etoc 100), of IC50 Value [3] | Potency Ratio (Etoc 100), of IC90 Value [3] | other results
1 | CC=CC1C(C(=O)OCc2c(F)c(F)c(COC)c(F)c2F)C1(C)C (stereo not shown) [Sample Chemical A, 2,3,5,6-tetrafluoro-4-methoxymethylbenzyl 3-(1-propenyl)-2,2-dimethylcyclopropanecarboxylate] | higher in potency and also longer in retention time than transfluthrin | 6.53 | 4.52 | 5.38 | 6.28 | 7.25 | 9.60 | 8.50 | 8.80 | 9.70 | 8.97 | 11.60 | 12.50 | 11.50 | 13.60 | 25.1 | lower than transfluthrin, but higher than d,d-T80-prallethrin | more efficacious than transfluthrin | 197.1 | 496.8 | KT50 ([1]; elapsed time 2352 hr): 16.80 min; KT50 ([1]; elapsed time 2520 hr): 17.20 min; KT50 ([1]; elapsed time 2688 hr): 18.60 min; KT50 ([1]; elapsed time 2856 hr): 17.70 min; KT50 ([1]; elapsed time 3024 hr): 24.60 min; KT50 ([1]; elapsed time 3192 hr): 27.80 min; KT50 ([1]; elapsed time 3360 hr): 31.60 min
2 | Cc1c(F)c(F)c(COC(=O)C2C(C=C(F)Cl)C2(C)C)c(F)c1F (stereo not shown) [Sample Chemical C, 2,3,5,6-tetrafluoro-4-methylbenzyl 3-(2-chloro-2-fluorovinyl)-2,2-dimethylcyclopropanecarboxylate] | higher in potency and also longer in retention time than transfluthrin | 5.53 | 7.53 | 7.55 | 6.95 | 7.98 | 12.60 | 10.70 | 11.50 | 12.60 | 15.90 | 20.70 | 25.90 | 27.80 | 30.60 | 24.5 | lower than transfluthrin, but higher than d,d-T80-prallethrin | more efficacious than transfluthrin | 130.6 | 348.2 | –
3 | CC1(C)[C@H](C=C(Cl)Cl)[C@H]1C(=O)OCc1c(F)c(F)cc(F)c1F [Transfluthrin, reference compound] | – | 11.10 | 8.73 | 9.17 | 13.40 | 12.10 | 17.20 | 15.60 | 20.40 | 18.80 | 28.10 | 30.40 | – | – | – | 23.6 | – | – | 19.0 | 29.2 | –
